# Measured values: EP4790063A1, “PEPTIDE HAVING ACTIVITY FOR […] OF MARINE FOULING” (National University Corporation Hokkaido University, priority 2023, dated 2025)
# Like-named read-outs stand apart in the source and are kept apart here. Non-standard residues stand in square brackets, D forms with d. Residues, ends and D or L forms follow the SMILES beside them. ξ: configuration not given here. *: point of attachment. d(β3hL) = CC(C)C[C@@H](N)CC(=O)O; hPhe = N[C@@H](CCc1ccccc1)C(=O)O; Boc = CC(C)(C)OC(=O)*; ξβ3hA = CC(N)CC(=O)O; OBn = c1ccc(CO*)cc1
# Columns and labels:
# [1] = system: cypris larvae of Striped Barnacle; assay: Evaluation of antifouling activities and toxicity against the cypris larvae of Striped Barnacle (24-well plate, adhesion and mortality after 48 h); type: in vivo, Amphibalanus amphitrite
# Method: (§1) After solutions of about 2 mL of the test compounds (tripeptides 2 to 10 and dipeptide 11) in ethanol were dispensed into each well of the 24-well polystyrene multi-well plate (3.2 mL/well, well diameter 15.5 mm, well height 17.6 mm, manufactured by Corning), the multi-well plate was air-dried to evaporate the ethanol.
# (§2) The test compounds were aliquoted to achieve final concentrations of 0.03, 0.1, 0.3, 1, 3, and 10 µg/mL.
# (§3) Subsequently, six individuals of the cypris larvae of Striped Barnacle (hereinafter simply referred to as "barnacle larvae") were transplanted into each well along with 2 mL of pre-filtered natural seawater. The multi-well plate was left standing in an incubator at 25°C, and the barnacle larvae were allowed to grow for two days at 25°C.
# In the above procedure, a test for the control group was conducted by dispensing an ethanol solution without any test compound. The natural seawater used in the above test was prepared by diluting the natural seawater collected from the coastal area near Onjuku, Chiba Prefecture (salt concentration: 36 g/kg) with distilled water to adjust a salt concentration of 32 g/kg.
# In the test group, the control group, and the comparison group, the tests were conducted in four times (four wells) for one concentration of each test compounds.
# Forty-eight hours after the test started, the number of adhered individuals and the number of dead individuals of the barnacle larvae in each well were counted under a stereomicroscope. The adhesion rate (%) and mortality rate (%) of the barnacle larvae in each well were calculated, respectively. […] Similarly, for each test compound, a dose-mortality response curve was created to determine the half-maximal lethal concentration (48h LC50) that causes 50% mortality in the barnacle larvae. As a reference, the value of Boc-3 obtained from non-Patent literature 8 is also described.
# In particular, the lower the settlement rate, the stronger the antifouling effect.
# [2] = system: cypris larvae of the striped barnacle; conditions: Non-Patent Documents 5 and 7, cited from earlier work
# [3] = system: KM20L2 (human colon cancer cell line); conditions: Non-Patent Document 4; cited from earlier work
# [4] = system: SF-295 (human glioblastoma cell line); conditions: Non-Patent Document 4; cited from earlier work
# [5] = system: NCI-H460 (human lung cancer cell line); conditions: Non-Patent Document 4; cited from earlier work
# [6] = system: juvenile shellfish of Mediterranean mussel; assay: Evaluation of the antifouling activity and toxicity against the juvenile shellfish of Mediterranean mussel (coated glass beaker, 3 days); type: in vivo, Mytilus galloprovincialis; conditions: for bottom surface-adhered individuals % / bottom surface-crawling individuals % / overturned individuals or closed shell individuals (unadhered) % / wall surface-adhered individuals % / number of byssal threads on the bottom surface / bottom surface-adhered individuals No. / bottom surface-crawling individuals No. / overturned individuals or closed shell individuals (unadhered) No. / wall surface-adhered individuals No.: three days; for bottom surface-adhered individuals No. / bottom surface-crawling individuals No. / overturned individuals or closed shell individuals (unadhered) No. / wall surface-adhered individuals No.: twelve individuals; for antifouling effect (overall determination in words): juvenile Mediterranean mussel, 3.0 µg/mL and 10 µg/mL
# Method: The sample was dissolved in ethanol to adjust to a concentration of 1 mg/mL. Thirty and 100 µL (30 and 100 µg) of the sample solutions were mixed with the solvent, and the mixtures were brought to a total volume of 500 µL. These mixtures were spread on the bottom surface of the glass beaker of the test container, and the solvent was volatilized by shaking them overnight. As a result, the samples to be evaluated were coated only on the bottom surface of the glass beaker.
# [7] = system: cypris larvae of Striped Barnacle
# Method: as §1, §2, §3
# In the above procedure, a test for the control group was conducted by dispensing an ethanol solution without any test compound. […]
# Forty-eight hours after the test started, the number of adhered individuals and the number of dead individuals of the barnacle larvae in each well were counted under a stereomicroscope. The adhesion rate (%) and mortality rate (%) of the barnacle larvae in each well were calculated, respectively. […]
# [8] = system: juvenile shellfish of Mediterranean mussel
# Method: The sample was dissolved in ethanol to adjust to a concentration of 1 mg/mL. Thirty and 100 µL (30 and 100 µg) of the sample solutions were mixed with the solvent, and the mixtures were brought to a total volume of 500 µL. These mixtures were spread on the bottom surface of the glass beaker of the test container, and the solvent was volatilized by shaking them overnight.
# A volume of 10 mL of the test seawater was added to the glass beakers of the test containers. The tests were initiated by introducing twelve test individuals into the test seawater in each beaker. The tests ended after three days, and the observation was conducted.
# In Table 2, the terms "bottom surface-adhered individuals" and "wall surface-adhered individuals" refer to individuals that are adhered to the bottom surface and wall surface of the beaker, respectively; the term "bottom surface-crawling individuals" refers to individuals that move along the bottom surface without adhering; the term "overturned individuals or closed shell individuals (unadhered)" refers to individuals that are either overturned or in a closed shell without adhering to the bottom surface; and the term "number of byssal threads on the bottom surface" refers to the number of foot threads that are fixed to the bottom surface. In particular, the greater the reduction in the number of byssal threads, the stronger the effect of adhesion prevention.
# [9] = Table 4 summary of results from Test Examples 1 to 3 (rounded)
# [10] = Test Example 3, same manner as Test Example 1
# [11] = Test Example 1, concentration causing 50% mortality in barnacle larvae, 48 h, 25°C, tested 0.03-10 µg/mL
# [12] = Test Example 1, concentration that prevents adhesion of barnacle larvae by 50%, 48 h, 25°C, tested 0.03-10 µg/mL
# [13] = 3 µg/mL (30 µg), control group 118
# [14] = 3 µg/mL (30 µg), twelve individuals, three days
compound,measurement,setting,value
CC(C)(C)OC(=O)N1CCC[C@H]1C(=O)N[C@@H](CC(=O)OCc1ccccc1)c1ccccc1 [dipeptide 14],Antifouling activity 48h EC50,[1]; [9],3.2 µg/mL
same,Antifouling activity 48h EC50,[1]; [10],3.18 µg/mL
same,Toxicity 48h LC50,[1]; [10],>10 µg/mL
CCOC(=O)[C@H](C)NC(=O)[C@@H]1CCCN1C(=O)[C@H](Cc1ccccc1)NC(=O)OC(C)(C)C [tripeptide 2] (Boc-Phe-Pro-Ala-OEt),Antifouling activity 48h EC50,[1]; [9],>10 µg/mL
same,Toxicity 48h LC50,[1]; [11],>10 µg/mL
same,Antifouling activity 48h EC50,[1]; [12],>10 µg/mL
CC(C)C(NC(=O)[C@@H]1CCCN1C(=O)OC(C)(C)C)C(C)C(=O)OCc1ccccc1 (stereo partly shown) [dipeptide 11],Antifouling activity 48h EC50,[1]; [9],2.4 µg/mL
same,Toxicity 48h LC50,[1]; [11],>10 µg/mL
same,Antifouling activity 48h EC50,[1]; [12],2.39 µg/mL
CC(C)C(NC(=O)[C@@H]1CCCN1C(=O)[C@H](Cc1ccccc1)NC(=O)OC(C)(C)C)C(C)C(=O)OCc1ccccc1 (stereo partly shown) [tripeptide 6],Antifouling activity 48h EC50,[1]; [9],1.66 µg/mL
same,Toxicity 48h LC50,[1]; [11],>10 µg/mL
same,Antifouling activity 48h EC50,[1]; [12],1.63 µg/mL
Dolastatin 16 [reference compound],antifouling action (in words),[2],antifouling actions
same,antifouling action (in words),[2]; listed as synthetic Dolastatin 16,equivalent to that of the natural Dolastatin 16
same,growth-inhibiting effect (in words),[3],growth-inhibiting effect
same,growth-inhibiting effect (in words),[4],growth-inhibiting effect
same,growth-inhibiting effect (in words),[5],growth-inhibiting effect
same,bottom surface-adhered individuals %,[6]; 3 µg/mL (30 µg),75.0%
same,bottom surface-crawling individuals %,[6]; 3 µg/mL (30 µg),0.0%
same,overturned individuals or closed shell individuals (unadhered) %,[6]; 3 µg/mL (30 µg),0.0%
same,wall surface-adhered individuals %,[6]; 3 µg/mL (30 µg),25.0%
same,number of byssal threads on the bottom surface,[6]; [13],72
same,bottom surface-adhered individuals No.,[6]; 3 µg/mL (30 µg),9
same,bottom surface-crawling individuals No.,[6]; 3 µg/mL (30 µg),0
same,overturned individuals or closed shell individuals (unadhered) No.,[6]; 3 µg/mL (30 µg),0
same,wall surface-adhered individuals No.,[6]; 3 µg/mL (30 µg),3
same,bottom surface-adhered individuals %,[6]; 10 µg/mL (100 µg),100.0%
same,bottom surface-crawling individuals %,[6]; 10 µg/mL (100 µg),0.0%
same,number of byssal threads on the bottom surface,[6]; 10 µg/mL (100 µg),45
same,overturned individuals or closed shell individuals (unadhered) %,[6]; 10 µg/mL (100 µg),0.0%
same,wall surface-adhered individuals %,[6]; 10 µg/mL (100 µg),0.0%
same,bottom surface-adhered individuals No.,[6]; 10 µg/mL (100 µg),12
same,bottom surface-crawling individuals No.,[6]; 10 µg/mL (100 µg),0
same,overturned individuals or closed shell individuals (unadhered) No.,[6]; 10 µg/mL (100 µg),0
same,wall surface-adhered individuals No.,[6]; 10 µg/mL (100 µg),0
same,antifouling effect (overall determination in words),[6],no antifouling effect
CC(C)C[C@H](CC(=O)OCc1ccccc1)NC(=O)[C@@H]1CCCN1C(=O)[C@H](CCc1ccccc1)NC(=O)OC(C)(C)C [tripeptide 12] (Boc-[hPhe]-Pro-[d(β3hL)]-OBn),Antifouling activity 48h EC50,[1]; [9],0.5 µg/mL
same,Antifouling activity 48h EC50,[1]; [10],0.49 µg/mL
same,Toxicity 48h LC50,[1]; [10],>10 µg/mL
CCOC(=O)CC(C)NC(=O)[C@@H]1CCCN1C(=O)[C@H](Cc1ccccc1)NC(=O)OC(C)(C)C (stereo partly drawn) [tripeptide 10] (Boc-Phe-Pro-[ξβ3hA]-OEt),bottom surface-adhered individuals %,[6]; 3 µg/mL (30 µg),66.7%
same,bottom surface-crawling individuals %,[6]; 3 µg/mL (30 µg),0.0%
same,overturned individuals or closed shell individuals (unadhered) %,[6]; 3 µg/mL (30 µg),8.3%
same,wall surface-adhered individuals %,[6]; 3 µg/mL (30 µg),25.0%
same,number of byssal threads on the bottom surface,[6]; [13],80
same,bottom surface-adhered individuals No.,[6]; 3 µg/mL (30 µg),8
same,bottom surface-crawling individuals No.,[6]; 3 µg/mL (30 µg),0
same,overturned individuals or closed shell individuals (unadhered) No.,[6]; 3 µg/mL (30 µg),1
same,wall surface-adhered individuals No.,[6]; 3 µg/mL (30 µg),3
same,bottom surface-adhered individuals %,[6]; 10 µg/mL (100 µg),58.3%
same,bottom surface-crawling individuals %,[6]; 10 µg/mL (100 µg),0.0%
same,number of byssal threads on the bottom surface,[6]; 10 µg/mL (100 µg),11.5
same,overturned individuals or closed shell individuals (unadhered) %,[6]; 10 µg/mL (100 µg),8.3%
same,wall surface-adhered individuals %,[6]; 10 µg/mL (100 µg),33.3%
same,bottom surface-adhered individuals No.,[6]; 10 µg/mL (100 µg),7
same,bottom surface-crawling individuals No.,[6]; 10 µg/mL (100 µg),0
same,overturned individuals or closed shell individuals (unadhered) No.,[6]; 10 µg/mL (100 µg),1
same,wall surface-adhered individuals No.,[6]; 10 µg/mL (100 µg),4
same,antifouling effect (overall determination in words),[6],ineffective
O=S(=O)([O-])[O-].[Cu+2] [Copper sulfate],Antifouling activity 48h EC50,[7]; [12],0.41 µg/mL
same,Antifouling activity 48h EC50,[7]; [10],0.3 µg/mL
same,bottom surface-adhered individuals %,"[8]; 3 µg/mL (30 µg), three days",0.0%
same,bottom surface-crawling individuals %,"[8]; 3 µg/mL (30 µg), three days",0.0%
same,overturned individuals or closed shell individuals (unadhered) %,"[8]; 3 µg/mL (30 µg), three days",100.0%
same,wall surface-adhered individuals %,"[8]; 3 µg/mL (30 µg), three days",0.0%
same,number of byssal threads on the bottom surface,"[8]; 3 µg/mL (30 µg), three days, control group 118",2
same,bottom surface-adhered individuals No.,[8]; [14],0
same,bottom surface-crawling individuals No.,[8]; [14],0
same,overturned individuals or closed shell individuals (unadhered) No.,[8]; [14],12
same,wall surface-adhered individuals No.,[8]; [14],0
same,antifouling effect (overall determination in words),"[8]; juvenile Mediterranean mussel, 3.0 µg/mL and 10 µg/mL",high
